Experimental data published in patent US7659401B2, “Thiazolo[4,5-C]pyridine derivatives” (Hoffmann-La Roche Inc., priority 2005, dated 2010).

Target: T1, human mGlu 5a receptor (Homo sapiens, UniProt P41594)
T1 construct: expressed in transfected cells; host or cells: EBNA cells (transient transfection); cell membrane homogenates
Test: [3H]MPEP competition binding on membranes of EBNA cells transiently transfected with human mGlu 5a receptor
Details: displacement of [3H]MPEP (2 nM), 1 h at 4° C., Ki=IC50/[1+L/Kd]
Method: The pharmacological activity of the compounds was tested using the following method: For binding experiments, cDNA encoding human mGlu 5a receptor was transiently transfected into EBNA cells using a procedure described by Schlaeger and Christensen [Cytotechnology 15:1-13 (1998)]. Cell membrane homogenates were stored at −80° C. until the day of assay where upon they were thawed and resuspended and polytronised in 15 mM Tris-HCl, 120 mM NaCl, 100 mM KCl, 25 mM CaCl2, 25 mM MgCl2 binding buffer at pH 7.4 to a final assay concentration of 20 μg protein/well.
Saturation isotherms were determined by addition of twelve [^3H]MPEP concentrations (0.04-100 nM) to these membranes (in a total volume of 200 μL) for 1 h at 4° C. Competition experiments were performed with a fixed concentration of [^3H]MPEP (2 nM) and IC50 values of test compounds evaluated using 11 concentrations (0.3-10,000 nM). Incubations were performed for 1 h at 4° C.
At the end of the incubation, membranes were filtered onto unifilter (96-well white microplate with bonded GF/C filter preincubated 1 h in 0.1% PEI in wash buffer, Packard Bio-Science, Meriden, Conn.) with a Filtermate 96 harvester (Packard BioScience) and washed 3 times with cold 50 mM Tris-HCl, pH 7.4 buffer. Nonspecific binding was measured in the presence of 10 μM MPEP. The radioactivity on the filter was counted (3 min) on a Packard Top-count microplate scintillation counter with quenching correction after addition of 45 μl of microscint 40 (Canberra Packard S.A., Zürich, Switzerland) and shaking for 20 min.
For binding experiments the Ki values of the compounds tested are given. The Ki value is defined by the following formula: Ki=IC50/[1+L/Kd] in which the IC50 values are those concentrations of the compounds tested which cause 50% inhibition of the competing radioligand ([^3H]MPEP). L is the concentration of radioligand used in the binding experiment and the Kd value of the radioligand is empirically determined for each batch of membranes prepared.

T1 sequence (P41594 21-1180 isoform P41594-2 limits assumed): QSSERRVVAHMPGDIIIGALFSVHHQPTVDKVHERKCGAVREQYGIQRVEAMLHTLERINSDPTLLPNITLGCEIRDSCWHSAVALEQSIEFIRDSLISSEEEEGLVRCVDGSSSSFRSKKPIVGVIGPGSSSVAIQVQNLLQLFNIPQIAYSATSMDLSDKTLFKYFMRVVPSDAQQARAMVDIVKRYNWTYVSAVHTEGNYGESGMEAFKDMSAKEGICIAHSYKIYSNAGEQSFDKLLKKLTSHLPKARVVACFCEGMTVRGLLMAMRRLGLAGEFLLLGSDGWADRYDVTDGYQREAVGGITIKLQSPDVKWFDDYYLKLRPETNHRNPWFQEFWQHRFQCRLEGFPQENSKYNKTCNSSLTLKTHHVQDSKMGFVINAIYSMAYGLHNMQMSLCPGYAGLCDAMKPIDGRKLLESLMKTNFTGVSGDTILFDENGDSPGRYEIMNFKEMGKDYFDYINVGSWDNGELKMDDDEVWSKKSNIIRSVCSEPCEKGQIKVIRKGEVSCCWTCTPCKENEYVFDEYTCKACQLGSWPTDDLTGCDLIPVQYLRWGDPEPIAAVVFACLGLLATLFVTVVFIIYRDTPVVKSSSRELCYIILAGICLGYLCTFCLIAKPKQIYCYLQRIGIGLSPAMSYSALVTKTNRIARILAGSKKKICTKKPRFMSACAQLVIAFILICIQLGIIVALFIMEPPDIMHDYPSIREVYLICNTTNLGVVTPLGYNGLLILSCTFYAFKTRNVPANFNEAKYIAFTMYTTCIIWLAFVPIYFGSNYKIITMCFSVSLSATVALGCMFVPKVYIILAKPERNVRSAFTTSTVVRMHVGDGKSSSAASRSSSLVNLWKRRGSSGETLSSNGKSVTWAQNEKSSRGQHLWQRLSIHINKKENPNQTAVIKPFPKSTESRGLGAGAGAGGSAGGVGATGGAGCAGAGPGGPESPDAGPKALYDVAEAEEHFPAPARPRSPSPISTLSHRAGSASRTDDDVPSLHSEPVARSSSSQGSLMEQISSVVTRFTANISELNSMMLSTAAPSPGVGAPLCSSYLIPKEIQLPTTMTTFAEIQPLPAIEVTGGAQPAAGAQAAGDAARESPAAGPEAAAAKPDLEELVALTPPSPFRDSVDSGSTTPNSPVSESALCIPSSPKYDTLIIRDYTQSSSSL

For `Cc1csc(Nc2ncc(-c3cc(F)cc(F)c3)c3sc(C)nc23)n1` [Example 19, [7-(3,5-Difluoro-phenyl)-2-methyl-thiazolo[4,5-c]pyridin-4-yl]-(4-methyl-thiazol-2-yl)-amine], which Ki is on record?
Its Ki is 29 nM.

`Cc1ccc(Nc2ncc(-c3cncc(F)c3)c3sc(C)nc23)nc1` [Example 20, [7-(5-Fluoro-pyridin-3-yl)-2-methyl-thiazolo[4,5-c]pyridin-4-yl]-(5-methyl-pyridin-2-yl)-amine] was tested. Which Ki did it give?
Its Ki is 87 nM.

With `Cc1nccc(Nc2ncc(-c3cccc(S(C)(=O)=O)c3)c3sc(C)nc23)n1` [Example 17, [7-(3-Methanesulfonyl-phenyl)-2-methyl-thiazolo[4,5-c]pyridin-4-yl]-(2-methyl-pyrimidin-4-yl)-amine] as the compound, how does the Ki read?
The Ki was 128 nM.

Which Ki does the source give for `Cc1csc(Nc2ncc(-c3cncnc3)c3sc(C)nc23)n1` [Example 9] here?
The Ki was 61 nM.

How did the Ki turn out when `Cc1nc2c(Nc3ccc(F)cn3)ncc(-c3cccnc3)c2s1` [Example 4] was run?
The Ki was 40 nM.

For `Cc1csc(Nc2ncc(-c3cccnc3)c3sc(C)nc23)n1` [Example 3, (2-Methyl-7-pyridin-3-yl-thiazolo[4,5-c]pyridin-4-yl)-(4-methyl-thiazol-2-yl)-amine], which Ki is on record?
Its Ki is 42 nM.

How did the Ki turn out when `Cc1nc(Nc2ncc(-c3ccnc(Cl)c3)c3sc(C)nc23)cs1` [Example 14, [7-(2-Chloro-pyridin-4-yl)-2-methyl-thiazolo[4,5-c]pyridin-4-yl]-(2-methyl-thiazol-4-yl)-amine] was run?
Its Ki is 45 nM.

Which Ki does the source give for `Cc1nc(Nc2ncc(-c3cccnc3)c3sc(C)nc23)cs1` [Example 2, (2-Methyl-7-pyridin-3-yl-thiazolo[4,5-c]pyridin-4-yl)-(2-methyl-thiazol-4-yl)-amine] here?
The Ki was 37 nM.

How did the Ki turn out when `Cc1nc2c(Nc3cccc(Cl)c3)nccc2s1` [Example 1] was run?
Its Ki is 26 nM.

Which Ki does the source give for `Cc1nc2c(Nc3ccn(C)n3)ncc(-c3cccnc3)c2s1` [Example 5] here?
Its Ki is 167 nM.
